Results published in article PMC7356956, “1-(1-Arylethylpiperidin-4-yl)thymine Analogs as Antimycobacterial TMPK Inhibitors” (Molecules, 2020).
≈ marks a conversion by molar mass, not a printed value. Like-named read-outs stand apart in the source and are kept apart here.

What was measured:
MtbTMPK [1] = target: T1, MtbTMPK (Mycobacterium tuberculosis, UniProt P9WKE1); assay: MtbTMPK enzymatic assay (spectrophotometric coupled assay); assay type: biochemical; conditions: for MtbTMPK inhibitory potency, in words: qualitative statement, compared with 3
T1 sequence (P9WKE1 whole entry, looked up): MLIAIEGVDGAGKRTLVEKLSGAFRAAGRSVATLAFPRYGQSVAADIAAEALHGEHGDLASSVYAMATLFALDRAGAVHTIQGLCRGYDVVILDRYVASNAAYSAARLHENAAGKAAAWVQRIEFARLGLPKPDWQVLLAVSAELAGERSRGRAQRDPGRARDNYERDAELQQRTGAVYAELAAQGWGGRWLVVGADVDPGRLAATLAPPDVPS
Protocol: The enzymatic assay was performed as previously reported on the recombinant purified MtbTMPK [14, 33]. As described by Blondin et al., compounds were evaluated by a serial dilution method using the spectrophotometric assay at fixed concentrations of adenosine triphosphate (ATP) (0.5 mM) and thymidine monophosphate (dTMP; 0.05 mM). The reaction medium includes 50-mM Tris-HCl; pH 7.4; 50-mM KCl; 2-mM MgCl2; 0.2-mM nicotinamide adenine dinucleotide (NADH); 1-mM phosphoenol pyruvate and 2 units each of coupling enzymes (lactate dehydrogenase, pyruvate kinase and nucleoside diphosphate kinase). From the experimental data, the IC50 value was calculated using KaleidaGraph 4.5.3.

[2] = tested on: M. tuberculosis H37Rv (ATCC 27294); assay: In vitro antituberculosis assay (MIC, broth microdilution); assay type: cell-based, Mycobacterium tuberculosis; conditions: for MIC: read-out: MIC (H37Rv)
[3] = In vitro cytotoxicity assay on MRC-5 fibroblasts; assay type: cell-based; conditions: human
Protocol: (§1) The cytotoxicity of compounds on MRC-5 fibroblasts was performed exactly as previously reported.

MRC-5 fibroblasts = assay: In vitro cytotoxicity assay on MRC-5 fibroblasts; assay type: cell-based; conditions: for SI (selectivity index): IC50 (MRC-5)/MIC (H37Rv)
Protocol: as §1

MtbTMPK [4] = target: T1, MtbTMPK; design: method as in PMID 29510037, PMID 27614917
[5] = tested on: M. tuberculosis H37Rv (ATCC 27294); conditions: previously reported values; cited from earlier work
[6] = ATP 0.5 mM, dTMP 0.05 mM, mean ± SD of at least two measurements, NI: no inhibition at a concentration of 0.2 mM, read-out: IC50 (MtbTMPK)
[7] = cytotoxicity against MRC-5 fibroblasts, read-out: IC50 (MRC-5)
[8] = Mycobacterium tuberculosis, minimum concentration required to inhibit >99% growth of M. tuberculosis H37Rv in liquid culture, 7–14 days

## Cc1cn(C2CCN(CCc3cccc(Oc4ccc(Cl)c(Cl)c4)c3)CC2)c(=O)[nH]c1=O [Compound 21g, 1-(1-(3-(3,4-Dichlorophenoxy)phenethyl)piperidin-4-yl)-5-methylpyrimidine-2,4(1H,3H)-dione]
MtbTMPK [1]; [6]
  IC50: 45 ± 2 µM
[2]; Mycobacterium tuberculosis
  MIC: 19 µM (≈ 9.01 µg/mL)
[3]; [7]
  IC50: 5.66 µM
MRC-5 fibroblasts
  SI (selectivity index): 0.30

## Cc1cn(C2CCN(CCc3cccc(OCc4ccccc4Cl)c3)CC2)c(=O)[nH]c1=O [Compound 21o, 1-(1-(3-((2-Chlorobenzyl)oxy)phenethyl)piperidin-4-yl)-5-methylpyrimidine-2,4(1H,3H)-dione]
MtbTMPK [1]; [6]
  IC50: 70 ± 9 µM
[2]; Mycobacterium tuberculosis
  MIC: 19 µM (≈ 8.63 µg/mL)
[3]; [7]
  IC50: 7.08 µM
MRC-5 fibroblasts
  SI (selectivity index): 0.37

## c1ccc(Oc2cccc(CCN3CCC(c4ccccc4)CC3)c2)cc1 [Compound 27, 1-(3-Phenoxyphenethyl)-4-phenylpiperidine]
MtbTMPK [1]
  MtbTMPK inhibitory potency, in words: complete loss of the inhibitory potency
MtbTMPK [1]; read-out: IC50 (MtbTMPK), ATP 0.5 mM, dTMP 0.05 mM, mean ± SD of at least two measurements, NI: no inhibition at a concentration of 0.2 mM
  IC50: > 200 µM
[2]; [8]
  MIC: 6.25 µM (≈ 2.23 µg/mL)
[2]; qualitative statement
  antimycobacterial activity (H37Rv), in words: potent antimycobacterial activity
[3]
  IC50: 8.06 µM
MRC-5 fibroblasts
  SI (selectivity index): 1.29
MRC-5 fibroblasts; qualitative statement, relative to antimycobacterial activity
  cytotoxicity (MRC-5), in words: equipotent cytotoxicity

## Cc1cn(C2CCN(CCc3cccc(Oc4ccccc4)c3)CC2)c(=O)[nH]c1=O [Compound 3, reference compound]
MtbTMPK [1]; [6]
  IC50: 17 ± 2 µM
[2]; Mycobacterium tuberculosis
  MIC: 37 µM (≈ 15 µg/mL)
[3]; [7]
  IC50: > 64 µM
MRC-5 fibroblasts
  SI (selectivity index): >1.73
MtbTMPK [4]; previously reported values; read-out: IC50 (MtbTMPK), reported; cited from earlier work
  IC50: 11 µM
[5]
  MIC (H37Rv), reported: 37 µM (≈ 15 µg/mL)

## Cc1cn(C2CCN(C(=O)Cc3cccc(Oc4ccccc4)c3)CC2)c(=O)[nH]c1=O [Compound 26, 5-Methyl-1-(1-(2-(3-phenoxyphenyl)acetyl)piperidin-4-yl)pyrimidine-2,4(1H,3H)-dione]
MtbTMPK [1]
  IC50: 230 ± 63 µM
  MtbTMPK inhibitory potency, in words: weak enzyme inhibition
[2]; [8]
  MIC: > 50 µM
[3]
  IC50: > 64 µM

## Cc1cn(C2CCN(CCc3cccc(Oc4ccc(Cl)cc4)c3)CC2)c(=O)[nH]c1=O [Compound 21h, 1-(1-(3-(4-Chlorophenoxy)phenethyl)piperidin-4-yl)-5-methylpyrimidine-2,4(1H,3H)-dione]
MtbTMPK [1]; [6]
  IC50: 49 ± 8 µM
MtbTMPK [1]; compared with isomer 21j
  increase in IC50-value (MtbTMPK) relative to 21j: 10 fold
[2]; Mycobacterium tuberculosis
  MIC: 12.5 µM (≈ 5.5 µg/mL)
[3]; [7]
  IC50: 5.81 µM
MRC-5 fibroblasts
  SI (selectivity index): 0.46

## Cc1cn(C2CCN(CCc3ccc(Oc4ccccc4)cc3)CC2)c(=O)[nH]c1=O [Compound 21e, 5-Methyl-1-(1-(4-phenoxyphenethyl)piperidin-4-yl)pyrimidine-2,4(1H,3H)-dione]
MtbTMPK [1]; [6]
  IC50: 160 ± 22 µM
MtbTMPK [1]
  MtbTMPK inhibitory potency, in words: negative effect on the inhibitory activity
[2]; Mycobacterium tuberculosis
  MIC: > 50 µM
[3]; [7]
  IC50: > 64 µM

## Cc1cn(C2CCCN(Cc3cccc(Oc4ccccc4)c3)C2)c(=O)[nH]c1=O (centres unmarked) [Compound 1]
MtbTMPK [4]; read-out: IC50 (MtbTMPK), reported; previously reported values; cited from earlier work
  IC50: 21 µM

## Cc1cn(C2CCN(CCc3cccc(Oc4cccc(Cl)c4)c3)CC2)c(=O)[nH]c1=O [Compound 21j, 1-(1-(3-(3-Chlorophenoxy)phenethyl)piperidin-4-yl)-5-methylpyrimidine-2,4(1H,3H)-dione]
MtbTMPK [1]; compared with compound 3
  improvement of MtbTMPK inhibitory potency relative to 3: three
MtbTMPK [1]
  MtbTMPK inhibitory potency, in words: significant improvement in the inhibitory potency
[2]; Mycobacterium tuberculosis
  MIC: 19 µM (≈ 8.36 µg/mL)
[2]; compared with compound 3
  improvement of H37Rv growth inhibitory activity relative to 3: two
[3]; [7]
  IC50: 25.2 µM
MRC-5 fibroblasts
  SI (selectivity index): 1.33

## Cc1cn(C2CCN(CCc3ccc(-c4ccccc4)cc3)CC2)c(=O)[nH]c1=O [Compound 21b, 1-(1-(2-([1,1’-Biphenyl]-4-yl)ethyl)piperidin-4-yl)-5-methylpyrimidine-2,4(1H,3H)-dione]
MtbTMPK [1]; [6]
  IC50: > 200 µM
MtbTMPK [1]
  MtbTMPK inhibitory potency, in words: complete loss of enzyme inhibitory potency
[2]; Mycobacterium tuberculosis
  MIC: > 50 µM
[3]; [7]
  IC50: 22.2 µM

## Cc1cn(C2CCN(CCc3cccc(Oc4ccc(C#N)cc4)c3)CC2)c(=O)[nH]c1=O [Compound 21k, 4-(3-(2-(4-(5-Methyl-2,4-dioxo-3,4-dihydropyrimidin-1(2H)-yl)piperidin-1-yl)ethyl)phenoxy)benzonitrile]
MtbTMPK [1]; [6]
  IC50: 126 ± 10 µM
MtbTMPK [1]
  MtbTMPK inhibitory potency, in words: significant drop in MtbTMPK inhibitory potency
[2]; Mycobacterium tuberculosis
  MIC: ≥ 50 µM
[3]; [7]
  IC50: > 64 µM

## COc1ccc(Oc2cccc(CCN3CCC(n4cc(C)c(=O)[nH]c4=O)CC3)c2)cc1 [Compound 21i, 1-(1-(3-(4-Methoxyphenoxy)phenethyl)piperidin-4-yl)-5-methylpyrimidine-2,4(1H,3H)-dione]
MtbTMPK [1]; [6]
  IC50: 34 ± 5 µM
[2]; Mycobacterium tuberculosis
  MIC: 25 µM (≈ 10.9 µg/mL)
[3]; [7]
  IC50: > 64 µM
MRC-5 fibroblasts
  SI (selectivity index): >2.56

## Cc1cn(C2CCN(CCc3ccccc3Oc3ccccc3)CC2)c(=O)[nH]c1=O [Compound 21c, 5-Methyl-1-(1-(2-phenoxyphenethyl)piperidin-4-yl)pyrimidine-2,4(1H,3H)-dione]
MtbTMPK [1]; [6]
  IC50: 100 ± 15 µM
MtbTMPK [1]
  MtbTMPK inhibitory potency, in words: negative effect on the inhibitory activity
[2]; Mycobacterium tuberculosis
  MIC: 50 µM (≈ 20.3 µg/mL)
[3]; [7]
  IC50: 26.8 µM
MRC-5 fibroblasts
  SI (selectivity index): 0.54

## Cc1cn(C2CCN(CCc3cccc(Oc4ccc(C(F)(F)F)cc4)c3)CC2)c(=O)[nH]c1=O [Compound 21m, 5-Methyl-1-(1-(3-(4-(trifluoromethyl)phenoxy)phenethyl)piperidin-4-yl)pyrimidine-2,4(1H,3H)-dione]
MtbTMPK [1]; [6]
  IC50: 135 ± 22 µM
MtbTMPK [1]
  MtbTMPK inhibitory potency, in words: significant drop in MtbTMPK inhibitory potency
[2]; Mycobacterium tuberculosis
  MIC: 37 µM (≈ 17.5 µg/mL)
[3]; [7]
  IC50: > 64 µM
MRC-5 fibroblasts
  SI (selectivity index): >1.73

## Cc1cn(C2CCN(CCc3cccc(OCc4cccc(Cl)c4)c3)CC2)c(=O)[nH]c1=O [Compound 21q, 1-(1-(3-((3-Chlorobenzyl)oxy)phenethyl)piperidin-4-yl)-5-methylpyrimidine-2,4(1H,3H)-dione]
MtbTMPK [1]; [6]
  IC50: 44 ± 2 µM
[2]; Mycobacterium tuberculosis
  MIC: 25 µM (≈ 11.3 µg/mL)
[3]; [7]
  IC50: 19.8 µM
MRC-5 fibroblasts
  SI (selectivity index): 0.79

## Cc1cn(C2CCN(CCc3ccccc3)CC2)c(=O)[nH]c1=O [Compound 21a, 5-Methyl-1-(1-phenethylpiperidin-4-yl)pyrimidine-2,4(1H,3H)-dione]
MtbTMPK [1]; [6]
  IC50: 680 ± 90 µM
MtbTMPK [1]; compared with compound 3
  loss/decrease in MtbTMPK inhibitory potency relative to 3: 40 fold
[2]; Mycobacterium tuberculosis
  MIC: > 50 µM
[3]; [7]
  IC50: > 64 µM

## 1-(1-(3-((3,4-Dichlorobenzyl)oxy)phenethyl)piperidin-4-yl)-5-methylpyrimidine-2,4(1H,3H)-dione [Compound 21p]
[2]; minimum concentration required to inhibit >99% growth of M. tuberculosis H37Rv in liquid culture, 7–14 days
  MIC: 12.5 µM
MRC-5 fibroblasts; cytotoxicity against MRC-5 fibroblasts
  IC50: 4.22 µM

## Cc1cn(C2CCN(CCc3cccc(Oc4ccc([N+](=O)[O-])cc4)c3)CC2)c(=O)[nH]c1=O [Compound 21l, 5-Methyl-1-(1-(3-(4-nitrophenoxy)phenethyl)piperidin-4-yl)pyrimidine-2,4(1H,3H)-dione]
MtbTMPK [1]; [6]
  IC50: 91 ± 10 µM
MtbTMPK [1]
  MtbTMPK inhibitory potency, in words: significant drop in MtbTMPK inhibitory potency
[2]; Mycobacterium tuberculosis
  MIC: 37 µM (≈ 16.7 µg/mL)
[3]; [7]
  IC50: > 64 µM
MRC-5 fibroblasts
  SI (selectivity index): >1.73

## Cc1cn(C2CCCN(CCc3cccc(Oc4ccccc4)c3)C2)c(=O)[nH]c1=O (centres unmarked) [Compound 23, 5-Methyl-1-(1-(3-phenoxyphenethyl)piperidin-3-yl)pyrimidine-2,4(1H,3H)-dione]
MtbTMPK [1]
  IC50: 192 ± 53 µM
MtbTMPK [1]; compared with compound 3
  loss/decrease in MtbTMPK inhibitory potency relative to 3: > 10 fold
[2]; [8]
  MIC: > 50 µM
[3]
  IC50: 21.8 µM

## Cc1ccc(Oc2cccc(CCN3CCC(n4cc(C)c(=O)[nH]c4=O)CC3)c2)cc1 [Compound 21f, 5-Methyl-1-(1-(3-(p-tolyloxy)phenethyl)piperidin-4-yl)pyrimidine-2,4(1H,3H)-dione]
MtbTMPK [1]; [6]
  IC50: 49 ± 7 µM
[2]; Mycobacterium tuberculosis
  MIC: 19 µM (≈ 7.97 µg/mL)
[3]; [7]
  IC50: 8.42 µM
MRC-5 fibroblasts
  SI (selectivity index): 0.44
